# In patent US6355799B1, “Substituted benzene compounds, process for their preparation, and herbicidal and defoliant compositions containing them” (ISK Americas Incorporated, priority 1997, dated 2002):
# Columns and labels:
# Type in all cases: in vivo
# [1] = tested on: redroot pigweed (Amaranthus retroflexus, AMARE); assay: Pre-emerge test, greenhouse herbicide activity screening; settings: pre-emerge, 14 days after application, scale 0-100
# Summary of the method: (§1)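 Compounds in acetone were track-sprayed at 187 l/ha, 15–1000 g ai/ha, onto sandy loam pots. Pre-emerge seeds were sown one day before spraying, with surface watering afterwards. Post-emerge plants were at the 2–3 leaf stage and sprayed with 0.25% v/v non-ionic surfactant. Injury was rated 0–100 at 14 days.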
# [2] = tested on: barnyardgrass (Echinochloa crus-galli, ECHCG); assay: as above; settings: pre-emerge, 14 days after application, scale 0-100
# Summary of the method: (§2)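 Sandy loam pots; pre-emerge: sown 1 d pre-spray, surface-watered after, then bottom-watered. Post-emerge: sown 8–21 d before, 2–3 leaf stage, + 0.25% v/v NIS, bottom-watered. Acetone, 187 l/ha track spray, 15–1000 g ai/ha. 0–100 injury score, day 14.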
# [3] = tested on: green foxtail (Setaria viridis, SETVI); assay: as above; settings: pre-emerge, 14 days after application, scale 0-100
# Summary of the method: as §2
# [4] = tested on: ivyleaf morningglory (Ipomoea hederacea, IPOHE); assay: as above; settings: pre-emerge, 14 days after application, scale 0-100
# Summary of the method: as §2
# [5] = tested on: johnsongrass (Sorghum halepense, SORHA); assay: as above; settings: pre-emerge, 14 days after application, scale 0-100
# Summary of the method: as §2
# [6] = tested on: lambsquarters (Chenopodium album, CHEAL); assay: as above; settings: pre-emerge, 14 days after application, scale 0-100
# Summary of the method: as §2
# [7] = tested on: large crabgrass (Digitaria sanguinalis, DIGSA); assay: as above; settings: pre-emerge, 14 days after application, scale 0-100
# Summary of the method: as §2
# [8] = tested on: sicklepod (Cassia obtusifolia, CASOB); assay: as above; settings: pre-emerge, 14 days after application, scale 0-100
# Summary of the method: as §2
# [9] = tested on: velvetleaf (Abutilon theophrasti, ABUTH); assay: as above; settings: pre-emerge, 14 days after application, scale 0-100
# Summary of the method: as §2
# [10] = tested on: field corn (Zea mays L., var. Dekalb 535, CORN); assay: Pre-emerge test, crop safety; settings: pre-emerge, 14 days after application, scale 0-100
# Summary of the method: (§3)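 Rating: 0–100 visual injury, 14 DAA. Application: acetone, 187 l/ha, 15–1000 g ai/ha, flat-fan track sprayer with nozzle 40–45 cm above soil or canopy. Post-emerge runs used 0.25% v/v surfactant on 2–3 leaf plants.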
# [11] = tested on: upland rice (Oryza sp., var. Tebonnet, RICE); assay: Pre-emerge test, crop safety; settings: pre-emerge, 14 days after application, scale 0-100
# Summary of the method: as §3
# [12] = tested on: barnyardgrass (Echinochloa crus-galli, ECHCG); assay: Post-emerge test, greenhouse herbicide activity screening; settings: post-emerge, 14 days after application, rating scale 0-100
# Summary of the method: as §1
# [13] = tested on: green foxtail (Setaria viridis, SETVI); assay: as above; settings: post-emerge, 14 days after application, rating scale 0-100
# Summary of the method: as §1
# [14] = tested on: ivyleaf morningglory (Ipomoea hederacea, IPOHE); assay: as above; settings: post-emerge, 14 days after application, rating scale 0-100
# Summary of the method: as §1
# [15] = tested on: lambsquarters (Chenopodium album, CHEAL); assay: as above; settings: post-emerge, 14 days after application, rating scale 0-100
# Summary of the method: as §1
# [16] = tested on: large crabgrass (Digitaria sanguinalis, DIGSA); assay: as above; settings: post-emerge, 14 days after application, rating scale 0-100
# Summary of the method: as §1
# [17] = tested on: redroot pigweed (Amaranthus retroflexus, AMARE); assay: as above; settings: post-emerge, 14 days after application, rating scale 0-100
# Summary of the method: as §1
# [18] = tested on: sicklepod (Cassia obtusifolia, CASOB); assay: as above; settings: post-emerge, 14 days after application, rating scale 0-100
# Summary of the method: as §1
# [19] = tested on: velvetleaf (Abutilon theophrasti, ABUTH); assay: as above; settings: post-emerge, 14 days after application, rating scale 0-100
# Summary of the method: as §1
# [20] = tested on: field corn (Zea mays L., var. Dekalb 535, CORN); assay: Post-emerge test, crop safety; settings: post-emerge, 14 days after application, rating scale 0-100
# Summary of the method: as §2
# [21] = tested on: upland rice (Oryza sp., var. Tebonnet, RICE); assay: Post-emerge test, crop safety; settings: post-emerge, 14 days after application, rating scale 0-100
# Summary of the method: as §2
structure (smiles),measurement,setting,value
Cn1c(C(F)(F)F)cc(=O)n(-c2ccc(C#N)cc2NC(=O)c2ccc3ccccc3c2)c1=O [2-140],phytotoxicity rating AMARE,[1]; 63 g ai/ha,100
same,phytotoxicity rating AMARE,[1]; 250 g ai/ha,100
same,phytotoxicity rating ECHCG,[2]; 63 g ai/ha,40
same,phytotoxicity rating ECHCG,[2]; 250 g ai/ha,80
same,phytotoxicity rating SETVI,[3]; 63 g ai/ha,50
same,phytotoxicity rating SETVI,[3]; 250 g ai/ha,80
same,phytotoxicity rating IPOHE,[4]; 63 g ai/ha,10
same,phytotoxicity rating IPOHE,[4]; 250 g ai/ha,100
same,phytotoxicity rating SORHA,[5]; 63 g ai/ha,10
same,phytotoxicity rating SORHA,[5]; 250 g ai/ha,60
same,phytotoxicity rating CHEAL,[6]; 63 g ai/ha,100
same,phytotoxicity rating CHEAL,[6]; 250 g ai/ha,100
same,phytotoxicity rating DIGSA,[7]; 63 g ai/ha,40
same,phytotoxicity rating DIGSA,[7]; 250 g ai/ha,95
same,phytotoxicity rating CASOB,[8]; 63 g ai/ha,40
same,phytotoxicity rating CASOB,[8]; 250 g ai/ha,100
same,phytotoxicity rating ABUTH,[9]; 63 g ai/ha,100
same,phytotoxicity rating ABUTH,[9]; 250 g ai/ha,100
same,phytotoxicity rating CORN (crop damage),[10]; 63 g ai/ha,0
same,phytotoxicity rating CORN (crop damage),[10]; 250 g ai/ha,15
same,phytotoxicity rating RICE (crop damage),[11]; 63 g ai/ha,30
same,phytotoxicity rating RICE (crop damage),[11]; 250 g ai/ha,85
same,ECHCG phytotoxicity rating,[12]; 63 g ai/ha,30
same,ECHCG phytotoxicity rating,[12]; 250 g ai/ha,85
same,SETVI phytotoxicity rating,[13]; 63 g ai/ha,40
same,SETVI phytotoxicity rating,[13]; 250 g ai/ha,60
same,IPOHE phytotoxicity rating,[14]; 63 g ai/ha,100
same,IPOHE phytotoxicity rating,[14]; 250 g ai/ha,100
same,CHEAL phytotoxicity rating,[15]; 63 g ai/ha,100
same,CHEAL phytotoxicity rating,[15]; 250 g ai/ha,100
same,DIGSA phytotoxicity rating,[16]; 63 g ai/ha,20
same,DIGSA phytotoxicity rating,[16]; 250 g ai/ha,65
same,AMARE phytotoxicity rating,[17]; 63 g ai/ha,100
same,AMARE phytotoxicity rating,[17]; 250 g ai/ha,100
same,CASOB phytotoxicity rating,[18]; 63 g ai/ha,100
same,CASOB phytotoxicity rating,[18]; 250 g ai/ha,100
same,ABUTH phytotoxicity rating,[19]; 63 g ai/ha,100
same,ABUTH phytotoxicity rating,[19]; 250 g ai/ha,100
same,CORN phytotoxicity rating (crop damage),[20]; 63 g ai/ha,10
same,CORN phytotoxicity rating (crop damage),[20]; 250 g ai/ha,70
same,RICE phytotoxicity rating (crop damage),[21]; 63 g ai/ha,50
same,RICE phytotoxicity rating (crop damage),[21]; 250 g ai/ha,80
Cn1c(C(F)(F)F)cc(=O)n(-c2ccccc2NC(=O)c2ccc3ccccc3c2)c1=O [2-142],phytotoxicity rating AMARE,[1]; 63 g ai/ha,0
same,phytotoxicity rating AMARE,[1]; 250 g ai/ha,40
same,phytotoxicity rating ECHCG,[2]; 63 g ai/ha,0
same,phytotoxicity rating ECHCG,[2]; 250 g ai/ha,0
same,phytotoxicity rating SETVI,[3]; 63 g ai/ha,0
same,phytotoxicity rating SETVI,[3]; 250 g ai/ha,0
same,phytotoxicity rating IPOHE,[4]; 63 g ai/ha,0
same,phytotoxicity rating IPOHE,[4]; 250 g ai/ha,0
same,phytotoxicity rating SORHA,[5]; 63 g ai/ha,0
same,phytotoxicity rating SORHA,[5]; 250 g ai/ha,0
same,phytotoxicity rating CHEAL,[6]; 63 g ai/ha,40
same,phytotoxicity rating CHEAL,[6]; 250 g ai/ha,70
same,phytotoxicity rating DIGSA,[7]; 63 g ai/ha,0
same,phytotoxicity rating DIGSA,[7]; 250 g ai/ha,0
same,phytotoxicity rating CASOB,[8]; 63 g ai/ha,0
same,phytotoxicity rating CASOB,[8]; 250 g ai/ha,0
same,phytotoxicity rating ABUTH,[9]; 63 g ai/ha,0
same,phytotoxicity rating ABUTH,[9]; 250 g ai/ha,0
same,phytotoxicity rating CORN (crop damage),[10]; 63 g ai/ha,0
same,phytotoxicity rating CORN (crop damage),[10]; 250 g ai/ha,0
same,phytotoxicity rating RICE (crop damage),[11]; 63 g ai/ha,0
same,phytotoxicity rating RICE (crop damage),[11]; 250 g ai/ha,0
same,ECHCG phytotoxicity rating,[12]; 63 g ai/ha,0
same,ECHCG phytotoxicity rating,[12]; 250 g ai/ha,0
same,SETVI phytotoxicity rating,[13]; 63 g ai/ha,0
same,SETVI phytotoxicity rating,[13]; 250 g ai/ha,0
same,IPOHE phytotoxicity rating,[14]; 63 g ai/ha,0
same,IPOHE phytotoxicity rating,[14]; 250 g ai/ha,50
same,CHEAL phytotoxicity rating,[15]; 63 g ai/ha,20
same,CHEAL phytotoxicity rating,[15]; 250 g ai/ha,60
same,DIGSA phytotoxicity rating,[16]; 63 g ai/ha,0
same,DIGSA phytotoxicity rating,[16]; 250 g ai/ha,0
same,AMARE phytotoxicity rating,[17]; 63 g ai/ha,0
same,AMARE phytotoxicity rating,[17]; 250 g ai/ha,40
same,CASOB phytotoxicity rating,[18]; 63 g ai/ha,0
same,CASOB phytotoxicity rating,[18]; 250 g ai/ha,10
same,ABUTH phytotoxicity rating,[19]; 63 g ai/ha,0
same,ABUTH phytotoxicity rating,[19]; 250 g ai/ha,40
same,CORN phytotoxicity rating (crop damage),[20]; 63 g ai/ha,10
same,CORN phytotoxicity rating (crop damage),[20]; 250 g ai/ha,15
same,RICE phytotoxicity rating (crop damage),[21]; 63 g ai/ha,10
same,RICE phytotoxicity rating (crop damage),[21]; 250 g ai/ha,0
